Here are results for seven compounds from US20220348584A1, “PERK INHIBITING INDOLINYL COMPOUNDS” (HiberCell, Inc., priority 2019, published 2022).

pIC50: −log10 of the molar value. Like-named read-outs stand apart in the source and are kept apart here.

Test [1] addresses T1, EIF2AK3 (PERK) catalytic domain (amino acids 536-1116) (Homo sapiens, UniProt Q9NZJ5).
T1 construct: EIF2AK3 (PERK) catalytic domain (amino acids 536-1116); purchased Invitrogen, Carlsbad, Calif
T1 sequence (Q9NZJ5 536-1116): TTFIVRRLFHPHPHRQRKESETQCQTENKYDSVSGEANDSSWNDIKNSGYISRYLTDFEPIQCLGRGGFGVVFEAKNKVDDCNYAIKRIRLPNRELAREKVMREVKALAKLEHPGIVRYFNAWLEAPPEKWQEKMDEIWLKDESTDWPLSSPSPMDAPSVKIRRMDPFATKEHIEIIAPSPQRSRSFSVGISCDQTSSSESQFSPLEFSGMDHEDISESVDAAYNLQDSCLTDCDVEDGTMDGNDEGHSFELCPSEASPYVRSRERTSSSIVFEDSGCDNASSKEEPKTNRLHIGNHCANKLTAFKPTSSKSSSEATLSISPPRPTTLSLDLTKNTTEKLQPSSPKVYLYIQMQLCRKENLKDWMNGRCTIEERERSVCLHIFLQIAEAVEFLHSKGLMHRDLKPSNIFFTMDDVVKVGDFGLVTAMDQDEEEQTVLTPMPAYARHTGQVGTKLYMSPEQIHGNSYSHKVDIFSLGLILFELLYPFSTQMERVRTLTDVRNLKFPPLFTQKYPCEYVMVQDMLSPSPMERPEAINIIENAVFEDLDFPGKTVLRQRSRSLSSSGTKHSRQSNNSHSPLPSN
Kind of test: PERK In Vitro Activity Assay (Isolated), TR-FRET kinase assay. Format: biochemical. The conditions noted are these: isolated PERK enzyme, 1.5 μM ATP, read-out: Biochemical IC50. The protocol: Perform TR-FRET kinase assays in the absence or presence of inhibitors in a reaction buffer consisting of 50 mM HEPES, pH 7.5, 10 mM MgCb, 1.0 mM EGTA, and 0.01% Brij-35, and 100-200 nM GFP-eIF2a substrate. […] Add test compound, initiate the reaction by addition of enzyme, and incubate at room temperature for 45 minutes. Stop the reaction by addition of EDTA to a final concentration of 10 mM, add Terbium-labelled phospho-eIF2a antibody at a final concentration of 2 nM, and incubate for 90 minutes. Monitor the resulting fluorescence in an EnVison® Multilabel reader (PerkinElmer, Waltham, Mass.).

Another test deals with HEK293-EGFP-eIF2a cells. Kind of test: PERK Cellular Assay (TR-FRET, GFP-eIF2α, tunicamycin-induced ER stress). The following applies: HEK293-EGFP-eIF2a cells, tunicamycin 2 hours, TR-FRET, read-out: Cellular eIF2α IC50. Format: cell-based, human. The protocol: Stable cell lines were created in HEK293 cells using lentiviral particles harboring an expression vector for GFP-eIF2α. Cells were selected using puromycin and enriched using fluorescence activated cell sorting against GFP. HEK293-EGFP-eIF2a cells were plated at 5000 cells/well in 384-well assay plates and incubated overnight at 37° C., 5% CO2. Inhibitor compounds were added to the wells by Echo acoustic dispensing and incubated for 30 minutes at 37° C., 5% CO2 prior to induction of ER stress by addition of tunicamycin to […] for 2 hours. Cells were lysed and TR-FRET was measured in an EnVision plate reader (PerkinElmer). FRET ratio data was normalized to signal from lysates treated with DMSO vehicle control and plotted as percent inhibition against 10-point; 3-fold dilution series of inhibitors. IC50 values were calculated using 4-parameter logistical fitting in XLFit.
A general note: Time-resolved FRET reads energy transfer from a long-lived donor to a nearby acceptor.

The pIC50 is the IC50 on a negative log10 scale, so that one unit is a factor of ten. Take `Cn1cc(-c2ccc3c(c2F)CCN3C(=O)C(O)c2ccccc2)c2c(N)ncnc21` (single isomer, unassigned) [Example 2, 1-(5-(4-amino-7-methyl-7H-pyrrolo[2,3-d]pyrimidin-5-yl)-4-fluoroindolin-1-yl)-2-hydroxy-2-phenylethanone]: the negative-log IC50 (pIC50) was 7.00 to 7.29 in test [1] and 6.60 to 7.00 with HEK293-EGFP-eIF2a cells.

On to `Cc1cccc(CC(=O)N2CCc3c2ccc(-c2nc(C)n4ccnc(N)c24)c3F)n1` [Example 23, 1-(5-(8-amino-3-methylimidazo[1,5-a]pyrazin-1-yl)-4-fluoroindolin-1-yl)-2-(6-methylpyridin-2-yl)ethanone], for which the negative-log IC50 (pIC50) in test [1] is 7.30 to 7.59; in the test on HEK293-EGFP-eIF2a cells (Homo sapiens, 2 h) it was 7.30 to 7.59.

`Cn1cc(-c2ccc3c(c2F)CCN3C(=O)C(O)c2ccccc2)c2c(N)ncnc21` (single isomer, unassigned) [Example 1, 1-(5-(4-amino-7-methyl-7H-pyrrolo[2,3-d]pyrimidin-5-yl)-4-fluoroindolin-1-yl)-2-hydroxy-2-phenylethanone]: the negative-log IC50 (pIC50) (in test [1]; in the test with HEK293-EGFP-eIF2a cells) was 7.60 to 9.00 throughout.

As for `Cn1cc(-c2ccc3c(c2F)CCN3C(=O)C(N)c2ccccc2)c2c(N)ncnc21` (single isomer, unassigned) [Example 4, 2-amino-1-(5-(4-amino-7-methyl-7H-pyrrolo[2,3-d]pyrimidin-5-yl)-4-fluoroindolin-1-yl)-2-phenylethanone], the pIC50 in test [1] was 6.60 to 7.00; in the test on HEK293-EGFP-eIF2a cells, 7.00 to 7.29.

`Cc1cccc(CC(=O)N2CCc3c2ccc(-c2nc(C)n4c(C)cnc(N)c24)c3F)n1` [Example 24, 1-(5-(8-amino-3,5-dimethylimidazo[1,5-a]pyrazin-1-yl)-4-fluoroindolin-1-yl)-2-(6-methylpyridin-2-yl)ethanone]: the negative-log IC50 (pIC50) in test [1] was 7.00 to 7.29; with HEK293-EGFP-eIF2a cells (Homo sapiens, 2 h), 7.30 to 7.59.

In the case of `Cc1nc(N)c2c(-c3ccc4c(c3)CCN4C(=O)C(O)c3cc(F)cc(C(F)(F)F)c3)cn(C)c2n1` (single isomer, unassigned) [Example 20, 1-(5-(4-amino-2,7-dimethyl-7H-pyrrolo[2,3-d]pyrimidin-5-yl)indolin-1-yl)-2-(3-fluoro-5-(trifluoromethyl)phenyl)-2-hydroxyethanone], the pIC50 (in test [1]; in the test with HEK293-EGFP-eIF2a cells) was 7.30 to 7.59 in each case.

Take `Cc1cn2c(C3CC(C)(O)C3)nc(-c3ccc4c(c3F)CCN4C(=O)C(O)c3cccc(F)c3)c2c(N)n1` (single isomer, unassigned) [Example 13, 1-(5-(8-amino-3-(3-hydroxy-3-methylcyclobutyl)-6-methylimidazo[1,5-a]pyrazin-1-yl)-4-fluoroindolin-1-yl)-2-(3-fluorophenyl)-2-hydroxyethanone]: the negative-log IC50 (pIC50) in test [1] is 7.30 to 7.59; with HEK293-EGFP-eIF2a cells, 6.30 to 6.60.
